# Laboratory results as given in ChEMBL document CHEMBL1127438, “Substituted (S)-phenylpiperidines and rigid congeners as preferential dopamine autoreceptor antagonists: synthesis and structure-activity relationships” (J Med Chem, 1994).
# Legend:
# [1] = species on record: Rattus norvegicus; test: Compound is tested for concomitant ability to antagonize the locomotor activity induced by Di-Pr-5,6-ADTN; assay type: functional
# [2] = test system: Rattus norvegicus; test: Compound is tested for its ability to displace (Di-Pr-5,6-ADTN) at […] of subcutaneous dose from rat striatal binding sites in vivo; assay type: functional
# [3] = target: T1, D(2) dopamine receptor (Homo sapiens, UniProt P14416); test: biochemical
# Description: (§1) Affinity against recombinant dopamine receptor (DA) D2 expressed in CHO-K1 cells, using [3H]-spiperone as radioligand
# [4] = test system: Rattus norvegicus; test: Evaluated biochemically in reserpine-pretreated habituated rats for (100 umol/kg) subcuteneous dose in rat striatum (DOPAacc), Value expressed as counts/30 min; assay type: functional
# [5] = test system: Rattus norvegicus; test: Tested in vivo for its ability to displace DA receptor agonist (Di-Pr-5,6-ADTN) from rat striatal binding sites at 0.25 uM/Kg sc. dose (after subtraction of cerebellum levels); assay type: functional
# [6] = species on record: Rattus norvegicus; test: Tested in vio for concomitant ability to antagonize the locomotor activity of rat induced by Di-Pr-5,6-ADTN, Value expressed as locomotor activity (LMA), % of control; assay type: functional; design: scale not given: the % may be the effect or the level left
# [7] = test system: Rattus norvegicus; test: Evaluated biochemically in nonhabituated rats for (100 umol/kg) subcuteneous dose, Value expressed as locomotor activity (LMA); assay type: functional
# [8] = test system: Rattus norvegicus; test: Evaluated biochemically in nonpretreated habituated rats for (100 uM/kg) subcuteneous dose, Value expressed as locomotor activity (LMA); assay type: functional
# [9] = target: T1, D(2) dopamine receptor; test: biochemical; remark: listed apart in the source
# Description: In vitro binding affinity against cloned mammalian dopamine D2 autoreceptor, expressed in CHO-K1 cells, using [3H]U-86170 as radioligand
# [10] = test system: Rattus norvegicus; test: Evaluated for DOPA accumulation (DOPAacc) level in nonhabituated rats after subcuteneous dose (100 uM/kg) in rat striatum; assay type: functional
# [11] = test system: Rattus norvegicus; test: Evaluated for DOPAC level in nonpretreated habituated rats after subcuteneous dose of 100 micro mol/kg in rat striatum; assay type: functional
# [12] = test system: Rattus norvegicus; test: Evaluated biochemically in reserpine-pretreated habituated rats for (100 umol/kg) subcuteneous dose, Value expressed as locomotor activity (LMA); assay type: functional
# [13] = target: T2, D(3) dopamine receptor (Homo sapiens, UniProt P35462); test: Tested for in vitro binding affinity against cloned mammalian dopamine D3 receptor, expressed in CHO-K1 cells, using [3H]spiperone as radioligand; assay type: cell-based
# [14] = target: T3, D(2) dopamine receptor (Rattus norvegicus, UniProt P61169)
# Description: Affinity against striatal dopamine D2 receptors using [3H]spiperone as radioligand in rats.
# [15] = test system: Rattus norvegicus; test: Effect of (60 min after administration of 200 (uM/kg) subcuteneous dose on DA release in brain dialysis model of rat striatum; Values expressed as percent of saline controls; assay type: functional
# [16] = test system: Rattus norvegicus; test: Compound is tested for its ability to displace Di-Pr-5,6-ADTN at […] subcutaneous dose from rat striatal binding sites in vivo; assay type: functional
# [17] = target: T2, D(3) dopamine receptor; test: Tested for in vitro binding affinity against cloned mammalian dopamine autoreceptor (DA) receptors expressed in CHO-K1 cells [3H]-spiperone as radioligand; assay type: cell-based
# [18] = test system: Rattus norvegicus; test: Effect (60 min after administration of 200 (micro mol/kg) subcuteneous dose on DA release in brain dialysis model of rat striatum; assay type: functional
# [19] = test system: Rattus norvegicus; test: Evaluated for DOPA accumulation in nonhabituated rats at 100 umol/kg of subcuteneous dose in rat striatum; assay type: functional
# [20] = target: Dopamine receptor; test: Tested for in vitro binding affinity against cloned mammalian dopamine autoreceptor (DA) receptors expressed in CHO-K1 cells using [3H]U-86170 as radioligand; assay type: cell-based
# [21] = test system: Rattus norvegicus; test: Evaluated for biochemical levels of DOPAC in nonpretreated habituated rats for subcuteneous dose of 100 micro mol/kg in rat striatum; assay type: functional
# [22] = target: T3, D(2) dopamine receptor; test: Tested for affinity against striatal dopamine autoreceptor (DA) D2 receptors using [3H]spiperone as radioligand in rats.
# [23] = test system: Rattus norvegicus; test: Compound is evaluated for DOPA accumulation in reserpine-pretreated habituated rats at 100 umol/kg of subcuteneous dose in rat striatum; assay type: functional
# [24] = test system: Rattus norvegicus; test: Effect (60 min after administration of 200 (micro mol/kg) subcuteneous dose on DA release in brain dialysis model of rat; assay type: functional
# [25] = test system: Rattus norvegicus; test: Compound is evaluated for DOPA accumulation in reserpine-pretreated habituated rats at 100 micro mol/kg of subcuteneous dose in rat striatum; assay type: functional
# [26] = test system: Rattus norvegicus; test: Evaluated for locomotor activity in nonpretreated habituated rats in 100 umol/kg of subcuteneous dose; assay type: functional; design: unit not given here
# [27] = test system: Rattus norvegicus; test: Compound is evaluated for DOPAC level in nonpretreated habituated rats after subcuteneous dose (100 micro mol/kg) in rat striatum; value expressed as percent of saline controls; assay type: functional
# [28] = species on record: Rattus norvegicus; test: Compound was tested in vio for concomitant ability to antagonize the locomotor activity of rat induced by Di-Pr-5,6-ADTN, Value expressed as locomotor activity (LMA), % of control; assay type: functional; design: scale not given: the % may be the effect or the level left
# [29] = test system: Rattus norvegicus; test: Evaluated for locomotor activity in nonpretreated habituated rats at 100 umol/kg of subcuteneous dose; assay type: functional; design: unit not given here
# [30] = test system: Rattus norvegicus; test: Compound is evaluated for locomotor activity in reserpine-pretreated habituated rats at 100 umol/kg of subcuteneous dose; assay type: functional
# [31] = test system: Rattus norvegicus; test: Compound is evaluated for locomotor activity in nonhabituated rats at 100 umol/kg of subcuteneous dose; assay type: functional
# [32] = test system: Rattus norvegicus; test: Compound is evaluated biochemically in nonhabituated rats for (100 umol/kg) subcuteneous dose, Value expressed as locomotor activity (LMA); assay type: functional
# [33] = test system: Rattus norvegicus; test: Compound is evaluated for accumulation of DOPA in nonhabituated rats at 100 umol/kg of subcuteneous dose in rat striatum; assay type: functional
# [34] = test system: Rattus norvegicus; test: Effect 60 min after administration of 200 (umol/kg) subcuteneous dose on DA release in rat brain dialysis model; assay type: functional
# [35] = target: T1, D(2) dopamine receptor; conditions: cho-k1
# Description: as §1
# T2 sequence (P35462 whole entry): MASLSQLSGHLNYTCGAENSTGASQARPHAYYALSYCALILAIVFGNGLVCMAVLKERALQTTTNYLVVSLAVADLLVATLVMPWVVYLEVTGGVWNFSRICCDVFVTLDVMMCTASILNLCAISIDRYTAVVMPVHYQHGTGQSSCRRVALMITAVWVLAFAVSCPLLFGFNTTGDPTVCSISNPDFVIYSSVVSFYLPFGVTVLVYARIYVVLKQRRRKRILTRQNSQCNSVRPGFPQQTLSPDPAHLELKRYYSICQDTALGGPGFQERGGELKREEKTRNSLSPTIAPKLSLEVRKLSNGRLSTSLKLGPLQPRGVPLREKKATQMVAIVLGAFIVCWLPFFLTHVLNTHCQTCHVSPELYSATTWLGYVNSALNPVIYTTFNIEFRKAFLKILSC
# T1 sequence (P14416 whole entry): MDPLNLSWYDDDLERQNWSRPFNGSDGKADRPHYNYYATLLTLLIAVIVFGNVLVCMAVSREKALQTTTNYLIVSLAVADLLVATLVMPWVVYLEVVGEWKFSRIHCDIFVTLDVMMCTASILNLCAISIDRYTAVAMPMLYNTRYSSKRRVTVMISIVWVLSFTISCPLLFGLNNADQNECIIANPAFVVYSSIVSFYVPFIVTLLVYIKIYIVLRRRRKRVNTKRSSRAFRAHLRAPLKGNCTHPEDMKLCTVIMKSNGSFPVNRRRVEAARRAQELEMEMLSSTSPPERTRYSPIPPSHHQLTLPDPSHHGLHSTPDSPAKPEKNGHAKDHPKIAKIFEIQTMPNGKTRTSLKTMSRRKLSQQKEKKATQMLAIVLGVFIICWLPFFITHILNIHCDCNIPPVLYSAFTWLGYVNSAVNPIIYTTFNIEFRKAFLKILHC
# T3 sequence (P61169 whole entry): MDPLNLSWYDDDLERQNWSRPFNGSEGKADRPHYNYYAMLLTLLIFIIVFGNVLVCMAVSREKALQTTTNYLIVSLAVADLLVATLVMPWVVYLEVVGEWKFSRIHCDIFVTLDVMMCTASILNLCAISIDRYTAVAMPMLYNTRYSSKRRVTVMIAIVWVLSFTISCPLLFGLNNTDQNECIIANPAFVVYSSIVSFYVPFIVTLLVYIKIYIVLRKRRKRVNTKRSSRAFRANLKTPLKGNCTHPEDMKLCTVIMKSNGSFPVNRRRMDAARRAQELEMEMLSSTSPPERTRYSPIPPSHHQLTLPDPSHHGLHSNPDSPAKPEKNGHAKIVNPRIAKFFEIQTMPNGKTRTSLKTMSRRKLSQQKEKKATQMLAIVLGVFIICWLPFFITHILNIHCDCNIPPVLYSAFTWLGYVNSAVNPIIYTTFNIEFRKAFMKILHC
SMILES,Ki [3] [µM],Control [5] [%],Ki [9] [µM],Control [12] [%],Ki [13] [µM],Ki [14] [µM],Activity [15] [%],Ki [17] [µM],Activity [19] [%],Ki [20] [µM],Activity [21] [%],Ki [22] [µM],also measured
CCCN(CCC)C1CCc2c(ccc(O)c2O)C1 (stereo not given),,,,,,,,,,,,,LMA [1]: 100%; Activity [2]: 0%
CCCN1CCC[C@@H](c2cccc(S(C)(=O)=O)c2)C1,> 0.217,45,0.447,10,1.3,6.27,293,,,,,,Activity [4]: 95%; Control [6]: 101%; Locomotor activity (% of control) [7]: 135%; Control [8]: 368%; Activity [10]: 319%; Activity [11]: 250%
CCCN1CCC[C@@H](c2ccccc2)C1,> 0.217,,,,,,,0.777,140,0.222,188,1.49,Activity [16]: 20%; Activity [18]: 473%; LMA [1]: 90%; Activity [23]: 65%
O=S(=O)(Oc1cccc([C@@H]2CCCN(CCc3ccccc3)C2)c1)C(F)(F)F,0.073,,,,,,,0.019,111,0.011,,0.04,Activity [24]: 89%; Activity [25]: 66%; LMA [26]: 20
CCCN1CCC[C@@H](c2ccc(OS(=O)(=O)C(F)(F)F)cc2)C1,> 0.217,,,,,,,1.14,495,1.736,85,11.8,
CCN1CCC[C@@H](c2cccc(OS(=O)(=O)C(F)(F)F)c2)C1,> 0.217,,,,,,,,286,,300,1.18,Activity [24]: 120%
CCC(C)N1CCC[C@@H](c2cccc(C#N)c2)C1 (stereo not given in full),0.098,59,0.187,,0.105,1.05,256,,,,,,Control [6]: 56%; Control [8]: 346%; Activity [11]: 267%
CCCN1CCC[C@@H](c2cccc(C(C)=O)c2)C1,> 0.217,44,> 1.85,7,2.15,6.54,179,,,,,,Activity [4]: 73%; Control [6]: 81%; Locomotor activity (% of control) [7]: 139%; Control [8]: 824%; Activity [11]: 243%; Control [27]: 183%
CCCN1CCC[C@@H](c2cccc(C#N)c2)C1,0.265,66,0.119,12,0.249,1.14,252,,,,,,Control [28]: 31%
CCCN1CCC[C@@H](c2cccc(Br)c2)C1,0.17,,,,,,,0.171,199,0.106,145,0.533,LMA [29]: 470; LMA [30]: 15; Activity [18]: 363%; LMA [31]: 140; Activity [23]: 101%
CCCN1CCC[C@@H](c2cccc(CO)c2)C1,> 0.217,,0.24,3,1.46,0.41,175,,,,,,Activity [4]: 50%; Control [8]: 187%; Activity [10]: 118%; Activity [11]: 138%; Control [32]: 123%
C=CCN1CCC[C@@H](c2cccc(C#N)c2)C1,> 0.217,59,0.254,3,0.658,1.89,522,,,,,,Activity [4]: 85%; Control [6]: 46%; Locomotor activity (% of control) [7]: 143%; Activity [10]: 257%
C#Cc1cccc([C@@H]2CCCN(CCC)C2)c1,> 0.217,,,,,,,0.339,,0.334,138,0.709,LMA [29]: 671; Activity [33]: 136%; Activity [34]: 265%; LMA [31]: 237
CCCN1CCC[C@@H](c2cccc(OS(C)(=O)=O)c2)C1,> 0.217,55,0.192,18,0.978,4.17,234,,,,,,Activity [4]: 74%; Locomotor activity (% of control) [7]: 154%; Control [8]: 576%; Activity [10]: 249%; Control [28]: 46%
CCCN1CCC[C@@H](c2ccccc2OS(=O)(=O)C(F)(F)F)C1,> 0.217,,,,,,,3.11,102,0.315,83,,
C=CCN1CC[C@@H]2c3cccc(OS(=O)(=O)C(F)(F)F)c3CC[C@@H]21 (stereo in doubt; 49),> 0.217,,,,,,,0.173,,0.353,108,> 0.172,LMA [26]: 116
C=CCN1CC[C@@H]2c3cccc(OS(=O)(=O)C(F)(F)F)c3CC[C@@H]21 (stereo in doubt; 50),,,,,,,,> 0.5,,> 1.9,98,> 0.172,Ki [35]: > 0.217 µM; LMA [26]: 148
